Assays:
[1] = molecular target: T1, Amine oxidase [flavin-containing] B (Homo sapiens, UniProt P27338); test: Binding affinity towards monoamine oxidase B activity was measured using a benzylamine assay
T1 sequence (P27338 whole entry): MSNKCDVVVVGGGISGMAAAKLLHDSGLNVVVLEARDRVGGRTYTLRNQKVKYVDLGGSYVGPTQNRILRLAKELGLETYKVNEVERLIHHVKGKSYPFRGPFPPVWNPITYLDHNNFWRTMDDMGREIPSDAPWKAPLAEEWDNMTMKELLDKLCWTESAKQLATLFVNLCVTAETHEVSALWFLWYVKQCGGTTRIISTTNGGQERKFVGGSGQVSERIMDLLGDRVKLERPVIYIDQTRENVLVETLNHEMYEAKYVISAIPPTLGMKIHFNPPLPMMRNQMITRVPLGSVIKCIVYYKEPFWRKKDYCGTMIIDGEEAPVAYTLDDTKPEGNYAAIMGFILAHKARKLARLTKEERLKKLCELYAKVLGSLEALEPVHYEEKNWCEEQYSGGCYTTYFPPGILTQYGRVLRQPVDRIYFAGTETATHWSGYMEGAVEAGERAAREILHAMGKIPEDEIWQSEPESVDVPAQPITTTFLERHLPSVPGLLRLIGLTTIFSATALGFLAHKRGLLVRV

[2] = molecular target: T2, Amine oxidase [flavin-containing] A (Homo sapiens, UniProt P21397); test: Binding affinity towards monoamine oxidase A activity was measured using a kynuramine assay
T2 sequence (P21397 whole entry): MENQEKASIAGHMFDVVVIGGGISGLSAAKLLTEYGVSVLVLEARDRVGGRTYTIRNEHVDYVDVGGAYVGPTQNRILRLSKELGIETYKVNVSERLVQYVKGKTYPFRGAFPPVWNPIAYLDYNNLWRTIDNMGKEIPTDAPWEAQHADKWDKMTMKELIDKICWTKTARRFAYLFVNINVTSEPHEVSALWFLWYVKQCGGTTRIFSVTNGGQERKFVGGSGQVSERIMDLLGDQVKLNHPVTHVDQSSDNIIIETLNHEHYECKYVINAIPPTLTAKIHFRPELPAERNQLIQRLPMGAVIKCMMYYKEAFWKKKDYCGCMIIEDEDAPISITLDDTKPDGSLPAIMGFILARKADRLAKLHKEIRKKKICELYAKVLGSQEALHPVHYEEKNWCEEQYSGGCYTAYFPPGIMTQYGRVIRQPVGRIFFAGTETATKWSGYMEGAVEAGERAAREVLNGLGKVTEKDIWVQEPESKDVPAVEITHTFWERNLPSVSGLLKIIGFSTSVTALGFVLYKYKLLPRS

[3] = molecular target: T3, Amine oxidase [flavin-containing] A (Rattus norvegicus, UniProt P21396); test: Inhibitory concentration towards monoamine oxidase A in rat brain was measured; assay type: tissue-based
T3 sequence (P21396 whole entry): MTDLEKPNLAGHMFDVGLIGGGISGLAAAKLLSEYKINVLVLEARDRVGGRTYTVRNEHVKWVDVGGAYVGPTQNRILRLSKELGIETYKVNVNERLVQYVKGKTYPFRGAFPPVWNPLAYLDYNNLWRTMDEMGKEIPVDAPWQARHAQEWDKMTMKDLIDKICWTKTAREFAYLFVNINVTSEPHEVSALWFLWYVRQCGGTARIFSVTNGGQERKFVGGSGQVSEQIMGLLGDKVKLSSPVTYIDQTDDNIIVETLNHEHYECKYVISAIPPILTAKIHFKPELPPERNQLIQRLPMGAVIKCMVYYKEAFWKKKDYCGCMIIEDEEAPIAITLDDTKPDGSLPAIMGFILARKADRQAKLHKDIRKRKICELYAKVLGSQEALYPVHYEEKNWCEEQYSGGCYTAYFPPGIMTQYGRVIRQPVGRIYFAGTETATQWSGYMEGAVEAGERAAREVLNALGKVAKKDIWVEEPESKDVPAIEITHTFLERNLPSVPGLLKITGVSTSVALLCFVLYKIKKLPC

[4] = molecular target: T4, Amine oxidase [flavin-containing] B (Rattus norvegicus, UniProt P19643); test: Inhibitory concentration towards monoamine oxidase B in rat brain was measured; assay type: tissue-based
T4 sequence (P19643 whole entry): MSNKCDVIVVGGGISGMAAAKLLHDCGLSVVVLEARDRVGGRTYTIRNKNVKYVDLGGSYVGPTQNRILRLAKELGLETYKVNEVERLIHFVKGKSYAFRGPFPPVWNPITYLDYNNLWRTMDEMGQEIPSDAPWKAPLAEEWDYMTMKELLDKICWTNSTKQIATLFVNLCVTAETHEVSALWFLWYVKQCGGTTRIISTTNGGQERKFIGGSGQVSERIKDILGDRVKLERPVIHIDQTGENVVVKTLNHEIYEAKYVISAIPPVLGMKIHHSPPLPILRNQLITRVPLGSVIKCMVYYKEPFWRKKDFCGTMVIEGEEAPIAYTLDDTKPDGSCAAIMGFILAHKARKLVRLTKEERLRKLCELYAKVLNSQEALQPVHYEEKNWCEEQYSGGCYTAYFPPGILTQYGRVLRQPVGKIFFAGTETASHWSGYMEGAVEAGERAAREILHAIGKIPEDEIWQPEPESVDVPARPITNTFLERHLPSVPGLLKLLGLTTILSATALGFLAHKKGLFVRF

C#CCN[C@@H]1CCc2ccc(O)cc21
Ki [1]: 17 µM | Ki [2]: 1.9 µM

C#CCN(C)[C@@H]1CCc2ccccc21
Ki [1]: 0.6 µM | Ki [2]: 4.9 µM

C#CCN[C@@H]1CCc2ccc(OC(=O)N(C)CC)cc21 [LADOSTIGIL]
IC50 [3]: 85 µM | Ki [1]: 213 µM | Ki [2]: 227 µM | IC50 [4]: 120 µM

Reference: ChEMBL document CHEMBL1149122 (J Med Chem, 2004)
